molecular target: T1, recombinant human pancreatic GLK (Homo sapiens, UniProt P35557); assay: GKH4 variant of GLK enzymatic activity assay (automated end-point assay); type: biochemical; details: activation of GLK; 10 nmol/l GLK; end-point at 10 minutes; no GLKRP
T1 construct: 6-His (N); made in house; host or cells: E. coli BL21
T1 sequence (P35557 1-465): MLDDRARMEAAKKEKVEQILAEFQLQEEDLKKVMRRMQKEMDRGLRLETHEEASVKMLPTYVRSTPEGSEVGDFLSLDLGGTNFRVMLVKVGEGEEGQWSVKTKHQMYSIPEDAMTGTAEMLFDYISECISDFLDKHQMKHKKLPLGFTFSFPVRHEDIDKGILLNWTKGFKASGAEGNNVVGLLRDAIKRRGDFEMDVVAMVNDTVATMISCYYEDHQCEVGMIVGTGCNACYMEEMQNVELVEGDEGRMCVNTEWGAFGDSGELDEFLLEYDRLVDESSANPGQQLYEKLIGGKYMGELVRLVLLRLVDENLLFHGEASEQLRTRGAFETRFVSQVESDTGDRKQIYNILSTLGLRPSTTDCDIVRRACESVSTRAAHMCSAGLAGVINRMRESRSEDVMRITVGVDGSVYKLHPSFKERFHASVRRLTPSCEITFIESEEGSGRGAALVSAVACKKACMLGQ
Experimental: (§1) Enzymatic activity of recombinant human pancreatic GLK may be measured by incubating GLK, ATP and glucose. The rate of product formation may be determined by coupling the assay to a G-6-P dehydrogenase, NADP/NADPH system and measuring the linear increase with time of optical density at 340 nm (Brocklehurst et al (Diabetes 2004, 53, 535-541). Activation of GLK by compounds can be assessed using this assay in the presence or absence of GLKRP as described in Brocklehurst et al (Diabetes 2004, 53, 535-541).
(§2) One or both of two variants of this assay, GKH1 and GKH4, were used to test the compounds of the invention. The GKH1 assay is a manual, bench-top rate assay using 60 nmol/l of recombinant human pancreatic GLK. The GLK activity rate is measured over a 5 minute window using a Multiskan Ascent spectrophotometer. The GKH4 assay is an automated end-point assay using 10 nmol/l of recombinant human pancreatic GLK. The GLK activity is measured at 10 minutes after the initiation of the assay on a Perkin Elmer Envision spectrophotometer.

| EC50 [nM] | Structure (SMILES) |
| --- | --- |
| 260 | CCN1CCC(Oc2cc(Oc3ccc(C(=O)N4CCC4)nc3)cc(C(=O)Nc3cnc(C)cn3)c2)C1=O (racemic) [Example 10, 3-[6-(Azetidine-1-carbonyl)pyridin-3-yl]oxy-5-(1-ethyl-2-oxo-pyrrolidin-3-yl)oxy-N-(5-methylpyrazin-2-yl)benzamide] |
| 600 | Cc1cnc(NC(=O)c2cc(Oc3ccc(C(=O)N4CCC4)nc3)cc(OC3CCN(C4CCC4)C3=O)c2)cn1 (racemic) [Example 17, 3-[6-(Azetidine-1-carbonyl)pyridin-3-yl]oxy-5-(1-cyclobutyl-2-oxo-pyrrolidin-3-yl)oxy-N-(5-methylpyrazin-2-yl)benzamide] |
| 300 | Cc1cnc(NC(=O)c2cc(Oc3ccc(C(=O)N4CCC4)nc3)cc(O[C@H]3CCN(C)C3=O)c2)cn1 [Example 1, 3-[6-(Azetidine-1-carbonyl)pyridin-3-yl]oxy-5-[(3S)-1-methyl-2-oxo-pyrrolidin-3-yl]oxy-N-(5-methylpyrazin-2-yl)benzamide] |
| 290 | Cc1csc(NC(=O)c2cc(Oc3cnc(C(=O)N4CCC4)cn3)cc(O[C@H]3CCN(C)C3=O)c2)n1 [Example 3, 3-[5-(Azetidine-1-carbonyl)pyrazin-2-yl]oxy-5-[(3S)-1-methyl-2-oxo-pyrrolidin-3-yl]oxy-N-(4-methyl1,3-thiazol-2-yl)benzamide] |
| 18300 | Cc1csc(NC(=O)c2cc(Oc3cnc(C(=O)N4CCC4)cn3)cc(O[C@@H]3CCN(C)C3=O)c2)n1 [Example 4, 3-[5-(Azetidine-1-carbonyl)pyrazin-2-yl]oxy-5-[(3R)-1-methyl-2-oxo-pyrrolidin-3-yl]oxy-N-(4-methyl1,3-thiazol-2-yl)benzamide] |
| 150 | CN1CC[C@H](Oc2cc(Oc3ccc(C(=O)N4CCC4)cc3)cc(C(=O)Nc3cc[nH]n3)c2)C1=O [Example 5, 3-[4-(Azetidine-1-carbonyl)phenoxy]-5-[(3S)-1-methyl-2-oxo-pyrrolidin-3-yl]oxy-N-(1H-pyrazol-3-yl)benzamide] |
| 190 | Cc1cnc(NC(=O)c2cc(Oc3ncc(C(=O)N4CCC4)cc3Cl)cc(O[C@H]3CCN(C)C3=O)c2)cn1 [Example 6, 3-[5-(Azetidine-1-carbonyl)-3-chloro-pyridin-2-yl]oxy-5-[(3S)-1-methyl-2-oxo-pyrrolidin-3-yl]oxy-N-(5-methylpyrazin-2-yl)benzamide] |
| 570 | Cc1cnc(NC(=O)c2cc(Oc3ccc(S(C)(=O)=O)cc3)cc(O[C@H]3CCN(C)C3=O)c2)cn1 [Example 7, 3-[(3S)-1-Methyl-2-oxo-pyrrolidin-3-yl]oxy-N-(5-methylpyrazin-2-yl)-5-(4-methylsulfonylphenoxy)benzamide] |
| 190 | Cc1cnc(NC(=O)c2cc(Oc3ccc(C(=O)N4CCC4)cc3)cc(O[C@H]3CCN(C)C3=O)c2)cn1 [Example 8, 3-[4-(Azetidine-1-carbonyl)phenoxy]-5-[(3S)-1-methyl-2-oxo-pyrrolidin-3-yl]oxy-N-(5-methylpyrazin-2-yl)benzamide] |
| 120 | Cc1cnc(NC(=O)c2cc(Oc3ccc4c(c3)OCCCS4(=O)=O)cc(O[C@H]3CCN(C)C3=O)c2)cn1 [Example 9, 3-[(2,2-Dioxo-6-oxa-2-λ^6-thiabicyclo[5.4.0]undeca-7,9,11-trien-9-yl)oxy]-5-[(3S)-1-methyl-2-oxo-pyrrolidin-3-yl]oxy-N-(5-methylpyrazin-2-yl)benzamide] |
| 310 | Cc1cnc(NC(=O)c2cc(Oc3ccc4c(c3)OCCN(C)S4(=O)=O)cc(O[C@H]3CCN(C)C3=O)c2)cn1 [Example 11, 3-[(5-methyl-6,6-dioxo-2-oxa-6-λ^6-thia-5-azabicyclo[5.4.0]undeca-8,10,12-trien-10-yl)oxy]-5-(1-methyl-2-oxo-pyrrolidin-3-yl)oxy-N-(5-methylpyrazin-2-yl)benzamide] |
| 430 | CN1CC[C@H](Oc2cc(Oc3ccc(C(=O)N4CCC4)nc3)cc(C(=O)Nc3cnccn3)c2)C1=O [Example 12, 3-[6-(Azetidine-1-carbonyl)pyridin-3-yl]oxy-5-[(3S)-1-methyl-2-oxo-pyrrolidin-3-yl]oxy-N-pyrazin-2-yl-benzamide] |
| 170 | CN1CC[C@H](Oc2cc(Oc3ccc(C(=O)N4CCC4)nc3)cc(C(=O)Nc3ccccn3)c2)C1=O [Example 13, 3-[6-(Azetidine-1-carbonyl)pyridin-3-yl]oxy-5-[(3S)-1-methyl-2-oxo-pyrrolidin-3-yl]oxy-N-pyridin-2-yl-benzamide] |
| 80 | Cc1cnc(NC(=O)c2cc(Oc3ccc4c(c3Cl)OCCN(C)C4=O)cc(O[C@H]3CCN(C)C3=O)c2)cn1 [Example 14, 3-[(11-Chloro-5-methyl-6-oxo-2-oxa-5-azabicyclo[5.4.0]undeca-8,10,12-trien-10-yl)oxy]-5-[(3S)-1-methyl-2-oxo-pyrrolidin-3-yl]oxy-N-(5-methylpyrazin-2-yl)benzamide] |
| 310 | Cc1cnc(NC(=O)c2cc(Oc3ccc4c(c3)OCCN(C)C4=O)cc(O[C@H]3CCN(C)C3=O)c2)cn1 [Example 16, 3-[(5-Methyl-6-oxo-2-oxa-5-azabicyclo[5.4.0]undeca-8,10,12-trien-10-yl)oxy]-5-[(3S)-1-methyl-2-oxo-pyrrolidin-3-yl]oxy-N-(5-methylpyrazin-2-yl)benzamide] |
| 590 | Cc1cnc(NC(=O)c2cc(Oc3ccc(C(=O)N4CCC4)nc3)cc(O[C@H]3CCN(C4CC4)C3=O)c2)cn1 [Example 19, 3-[6-(Azetidine-1-carbonyl)pyridin-3-yl]oxy-5-[(3S)-1-cyclopropyl-2-oxo-pyrrolidin-3-yl]oxy-N-(5-methylpyrazin-2-yl)benzamide] |
| 390 | Cc1cnc(NC(=O)c2cc(Oc3ccc(C(=O)N(C)C)cc3Cl)cc(O[C@H]3CCN(C)C3=O)c2)cn1 [Example 26, 3-[2-Chloro-4-(dimethylcarbamoyl)phenoxy]-5-[(3S)-1-methyl-2-oxo-pyrrolidin-3-yl]oxy-N-(5-methylpyrazin-2-yl)benzamide] |
| 660 | Cc1cnc(NC(=O)c2cc(Oc3ccc4c(c3)OCCNS4(=O)=O)cc(O[C@H]3CCN(C)C3=O)c2)cn1 [Example 27, 3-[(6,6-dioxo-2-oxa-6-λ^6-thia-5-azabicyclo[5.4.0]undeca-8,10,12-trien-10-yl)oxy]-5-[(3S)-1-methyl-2-oxo-pyrrolidin-3-yl]oxy-N-(5-methylpyrazin-2-yl)benzamide] |
| 570 | Cc1cnc(NC(=O)c2cc(Oc3ccc(S(C)(=O)=O)nc3)cc(O[C@H]3CCN(C)C3=O)c2)cn1 [Example 28, 3-[(3S)-1-methyl-2-oxo-pyrrolidin-3-yl]oxy-N-(5-methylpyrazin-2-yl)-5-(6-methylsulfonylpyridin-3-yl)oxy-benzamide] |
| 100 | Cc1cnc(NC(=O)c2cc(Oc3ccc(C(=O)N(C)C)nc3)cc(O[C@H]3CCN(C)C3=O)c2)cn1 [Example 29, N,N-dimethyl-5-[3-[(3S)-1-methyl-2-oxo-pyrrolidin-3-yl]oxy-5-[(5-methylpyrazin-2-yl)carbamoyl]phenoxy]pyridine-2-carboxamide] |
| 60 | CN1COc2cc(Oc3cc(O[C@H]4CCN(C)C4=O)cc(C(=O)Nc4cc[nH]n4)c3)ccc2C1=O [Example 30, 3-[(9-methyl-10-oxo-7-oxa-9-azabicyclo[4.4.0]deca-2,4,11-trien-4-yl)oxy]-5-[(3S)-1-methyl-2-oxo-pyrrolidin-3-yl]oxy-N-(1H-pyrazol-3-yl)benzamide] |
| 1080 | Cc1nsc(NC(=O)c2cc(Oc3cnc(C(=O)N(C)C)cn3)cc(O[C@H]3CCN(C)C3=O)c2)n1 [Example 31, N,N-dimethyl-5-[3-[(3S)-1-methyl-2-oxo-pyrrolidin-3-yl]oxy-5-[(3-methyl-1,2,4-thiadiazol-5-yl)carbamoyl]phenoxy]pyrazine-2-carboxamide] |
| 60 | Cc1csc(NC(=O)c2cc(Oc3cnc(C(=O)N(C)C)cn3)cc(O[C@H]3CCN(C)C3=O)c2)n1 [Example 32, N,N-Dimethyl-5-[3-[(3S)-1-methyl-2-oxo-pyrrolidin-3-yl]oxy-5-[(4-methyl-1,3-thiazol-2-yl)carbamoyl]phenoxy]pyrazine-2-carboxamide] |

molecular target: T1, recombinant human pancreatic GLK; assay: GKH1 variant of GLK enzymatic activity assay (manual bench-top rate assay); type: biochemical; details: activation of GLK; 60 nmol/l GLK; rate over 5 minute window; no GLKRP
Experimental: as §1, §2

| EC50 [nM] | Structure (SMILES) |
| --- | --- |
| 90 | Cc1cnc(NC(=O)c2cc(Oc3ccc(C(=O)N4CCC4)nc3)cc(O[C@H]3CCN(C)C3=O)c2)cn1 [Example 1, 3-[6-(Azetidine-1-carbonyl)pyridin-3-yl]oxy-5-[(3S)-1-methyl-2-oxo-pyrrolidin-3-yl]oxy-N-(5-methylpyrazin-2-yl)benzamide] |
| 3930 | Cc1cnc(NC(=O)c2cc(Oc3ccc(C(=O)N4CCC4)nc3)cc(O[C@@H]3CCN(C)C3=O)c2)cn1 [Example 2, 3-[6-(Azetidine-1-carbonyl)pyridin-3-yl]oxy-5-[(3R)-1-methyl-2-oxo-pyrrolidin-3-yl]oxy-N-(5-methylpyrazin-2-yl)benzamide] |
| 140 | Cc1cnc(NC(=O)c2cc(Oc3ccc4c(c3)OCCN(C)S4(=O)=O)cc(O[C@H]3CCN(C)C3=O)c2)cn1 [Example 11, 3-[(5-methyl-6,6-dioxo-2-oxa-6-λ^6-thia-5-azabicyclo[5.4.0]undeca-8,10,12-trien-10-yl)oxy]-5-(1-methyl-2-oxo-pyrrolidin-3-yl)oxy-N-(5-methylpyrazin-2-yl)benzamide] |
| 300 | CN1CC[C@H](Oc2cc(Oc3ccc(C(=O)N4CCC4)nc3)cc(C(=O)Nc3cnccn3)c2)C1=O [Example 12, 3-[6-(Azetidine-1-carbonyl)pyridin-3-yl]oxy-5-[(3S)-1-methyl-2-oxo-pyrrolidin-3-yl]oxy-N-pyrazin-2-yl-benzamide] |
| 430 | CN1CC[C@H](Oc2cc(Oc3ccc(C(=O)N4CCC4)nc3)cc(C(=O)Nc3ccccn3)c2)C1=O [Example 13, 3-[6-(Azetidine-1-carbonyl)pyridin-3-yl]oxy-5-[(3S)-1-methyl-2-oxo-pyrrolidin-3-yl]oxy-N-pyridin-2-yl-benzamide] |

Source: patent publication US7902200B2, “Chemical compounds” (AstraZeneca AB, priority 2006, dated 2011)
